According to PubChem BioAssay (NCI):
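Tested at 5 concentrations; 48 h exposure; 96-well plates; endpoints linearly interpolated, else capped at highest concentration. Abbreviation: GI50, concentration required for 50% inhibition of growth. TGI: concentration producing complete growth inhibition.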

How the values were obtained:
Experiment in all cases: inhibition of tumour cell growth, NCI panel, 48 h
HT29 colon = tested on: HT29 colon
SK-OV-3 ovarian = tested on: SK-OV-3 ovarian
HOP-92 NSCLC = tested on: HOP-92 NSCLC
NCI-H226 lung = tested on: NCI-H226 lung
SR leukemia = tested on: SR leukemia
PC-3 prostate = tested on: PC-3 prostate
NCI-H23 lung = tested on: NCI-H23 lung
OVCAR-8 ovarian = tested on: OVCAR-8 ovarian
SK-MEL-28 melanoma = tested on: SK-MEL-28 melanoma
K-562 leukemia = tested on: K-562 leukemia
ACHN renal = tested on: ACHN renal
BT-549 breast = tested on: BT-549 breast
A498 renal = tested on: A498 renal
T-47D breast = tested on: T-47D breast
SNB-19 CNS = tested on: SNB-19 CNS
CAKI-1 renal = tested on: CAKI-1 renal
HCT-15 colon = tested on: HCT-15 colon
RXF 393 renal = tested on: RXF 393 renal
IGROV1 ovarian = tested on: IGROV1 ovarian
M14 melanoma = tested on: M14 melanoma
SNB-75 CNS = tested on: SNB-75 CNS
NCI-H460 lung = tested on: NCI-H460 lung
TK-10 renal = tested on: TK-10 renal
UACC-257 melanoma = tested on: UACC-257 melanoma
SW-620 colon = tested on: SW-620 colon
SF-268 CNS = tested on: SF-268 CNS
HL-60(TB) leukemia = tested on: HL-60(TB) leukemia
MCF7 breast = tested on: MCF7 breast
OVCAR-4 ovarian = tested on: OVCAR-4 ovarian
MDA-MB-231 breast = tested on: MDA-MB-231 breast
MDA-MB-435 = tested on: MDA-MB-435
SK-MEL-5 melanoma = tested on: SK-MEL-5 melanoma
SK-MEL-2 melanoma = tested on: SK-MEL-2 melanoma
KM12 colon = tested on: KM12 colon
LOX IMVI melanoma = tested on: LOX IMVI melanoma
HCT-116 colon = tested on: HCT-116 colon
786-0 renal = tested on: 786-0 renal
HCC-2998 colon = tested on: HCC-2998 colon
NCI/ADR-RES ovarian = tested on: NCI/ADR-RES ovarian
UO-31 renal = tested on: UO-31 renal
CCRF-CEM leukemia = tested on: CCRF-CEM leukemia
SF-539 CNS = tested on: SF-539 CNS
UACC-62 melanoma = tested on: UACC-62 melanoma
COLO 205 colon = tested on: COLO 205 colon
MOLT-4 leukemia = tested on: MOLT-4 leukemia
SF-295 CNS = tested on: SF-295 CNS
HS 578T breast = tested on: HS 578T breast
EKVX NSCLC = tested on: EKVX NSCLC
DU-145 prostate = tested on: DU-145 prostate
HOP-62 NSCLC = tested on: HOP-62 NSCLC
U251 CNS = tested on: U251 CNS
RPMI-8226 leukemia = tested on: RPMI-8226 leukemia
OVCAR-3 ovarian = tested on: OVCAR-3 ovarian
SN12C renal = tested on: SN12C renal
OVCAR-5 ovarian = tested on: OVCAR-5 ovarian
A549 NSCLC = tested on: A549 NSCLC

Cc1cccc(NC(=S)Nc2ccc(Cl)cc2)n1
TGI (HT29 colon): > 100 µM | TGI (SK-OV-3 ovarian): > 100 µM | TGI (HOP-92 NSCLC): > 100 µM | TGI (NCI-H226 lung): > 100 µM | TGI (SR leukemia): > 100 µM | TGI (PC-3 prostate): > 100 µM | TGI (NCI-H23 lung): > 100 µM | TGI (OVCAR-8 ovarian): > 100 µM | TGI (SK-MEL-28 melanoma): > 100 µM | TGI (K-562 leukemia): > 100 µM | TGI (ACHN renal): > 100 µM | TGI (BT-549 breast): > 100 µM | TGI (A498 renal): > 100 µM | TGI (T-47D breast): > 100 µM | TGI (SNB-19 CNS): > 100 µM | TGI (CAKI-1 renal): > 100 µM | TGI (HCT-15 colon): > 100 µM | TGI (RXF 393 renal): > 100 µM | TGI (IGROV1 ovarian): > 100 µM | TGI (M14 melanoma): > 100 µM | TGI (SNB-75 CNS): > 100 µM | TGI (NCI-H460 lung): > 100 µM | TGI (TK-10 renal): > 100 µM | TGI (UACC-257 melanoma): > 100 µM | TGI (SW-620 colon): > 100 µM | TGI (SF-268 CNS): > 100 µM | TGI (HL-60(TB) leukemia): > 100 µM | TGI (MCF7 breast): > 100 µM | TGI (OVCAR-4 ovarian): > 100 µM | TGI (MDA-MB-231 breast): > 100 µM | TGI (MDA-MB-435): > 100 µM | TGI (SK-MEL-5 melanoma): > 100 µM | TGI (SK-MEL-2 melanoma): > 100 µM | TGI (KM12 colon): > 100 µM | TGI (LOX IMVI melanoma): > 100 µM | TGI (HCT-116 colon): > 100 µM | TGI (786-0 renal): > 100 µM | TGI (HCC-2998 colon): > 100 µM | TGI (NCI/ADR-RES ovarian): > 100 µM | TGI (UO-31 renal): > 100 µM | TGI (CCRF-CEM leukemia): > 100 µM | TGI (SF-539 CNS): > 100 µM | TGI (UACC-62 melanoma): > 100 µM | TGI (COLO 205 colon): > 100 µM | TGI (MOLT-4 leukemia): > 100 µM | TGI (SF-295 CNS): > 100 µM | TGI (HS 578T breast): > 100 µM | TGI (EKVX NSCLC): > 100 µM | TGI (DU-145 prostate): > 100 µM | TGI (HOP-62 NSCLC): > 100 µM | TGI (U251 CNS): > 100 µM | TGI (RPMI-8226 leukemia): > 100 µM

CC(=O)OCC1OC(OC2CCCC[Si](c3ccccc3)(c3ccccc3)O2)C(OC(C)=O)C(OC(C)=O)C1OC(C)=O (configuration not stated)
GI50 (HT29 colon): > 100 µM | TGI (HT29 colon): > 100 µM | GI50 (SK-OV-3 ovarian): > 100 µM | TGI (SK-OV-3 ovarian): > 100 µM | GI50 (HOP-92 NSCLC): > 100 µM | TGI (HOP-92 NSCLC): > 100 µM | GI50 (SR leukemia): 73.6 µM | TGI (SR leukemia): > 100 µM | GI50 (PC-3 prostate): > 100 µM | TGI (PC-3 prostate): > 100 µM | GI50 (NCI-H23 lung): > 100 µM | TGI (NCI-H23 lung): > 100 µM | GI50 (OVCAR-8 ovarian): > 100 µM | TGI (OVCAR-8 ovarian): > 100 µM | GI50 (SK-MEL-28 melanoma): > 100 µM | TGI (SK-MEL-28 melanoma): > 100 µM | GI50 (K-562 leukemia): 56.1 µM | TGI (K-562 leukemia): > 100 µM | GI50 (OVCAR-3 ovarian): 13.3 µM | TGI (OVCAR-3 ovarian): 69.5 µM | GI50 (ACHN renal): > 100 µM | TGI (ACHN renal): > 100 µM | GI50 (BT-549 breast): > 100 µM | TGI (BT-549 breast): > 100 µM | GI50 (A498 renal): > 100 µM | TGI (A498 renal): > 100 µM | GI50 (T-47D breast): > 100 µM | TGI (T-47D breast): > 100 µM | GI50 (SNB-19 CNS): > 100 µM | TGI (SNB-19 CNS): > 100 µM | GI50 (CAKI-1 renal): 38.9 µM | TGI (CAKI-1 renal): > 100 µM | GI50 (HCT-15 colon): > 100 µM | TGI (HCT-15 colon): > 100 µM | GI50 (RXF 393 renal): > 100 µM | TGI (RXF 393 renal): > 100 µM | GI50 (M14 melanoma): > 100 µM | TGI (M14 melanoma): > 100 µM | GI50 (NCI-H460 lung): > 100 µM | TGI (NCI-H460 lung): > 100 µM | GI50 (TK-10 renal): > 100 µM | TGI (TK-10 renal): > 100 µM | GI50 (UACC-257 melanoma): > 100 µM | TGI (UACC-257 melanoma): > 100 µM | GI50 (SW-620 colon): 53 µM | TGI (SW-620 colon): > 100 µM | GI50 (SN12C renal): > 100 µM | TGI (SN12C renal): > 100 µM | GI50 (SF-268 CNS): > 100 µM | TGI (SF-268 CNS): > 100 µM | GI50 (MCF7 breast): 69.2 µM | TGI (MCF7 breast): > 100 µM | GI50 (OVCAR-4 ovarian): > 100 µM | TGI (OVCAR-4 ovarian): > 100 µM | GI50 (MDA-MB-231 breast): > 100 µM | TGI (MDA-MB-231 breast): > 100 µM | GI50 (MDA-MB-435): 51 µM | TGI (MDA-MB-435): > 100 µM | GI50 (SK-MEL-5 melanoma): > 100 µM | TGI (SK-MEL-5 melanoma): > 100 µM | GI50 (KM12 colon): > 100 µM | TGI (KM12 colon): > 100 µM | GI50 (LOX IMVI melanoma): 53.6 µM | TGI (LOX IMVI melanoma): > 100 µM | GI50 (HCT-116 colon): 24.5 µM | TGI (HCT-116 colon): 59.2 µM | GI50 (786-0 renal): > 100 µM | TGI (786-0 renal): > 100 µM | GI50 (HCC-2998 colon): > 100 µM | TGI (HCC-2998 colon): > 100 µM | GI50 (NCI/ADR-RES ovarian): > 100 µM | TGI (NCI/ADR-RES ovarian): > 100 µM | GI50 (OVCAR-5 ovarian): > 100 µM | TGI (OVCAR-5 ovarian): > 100 µM | GI50 (CCRF-CEM leukemia): 35.5 µM | TGI (CCRF-CEM leukemia): > 100 µM | GI50 (SF-539 CNS): 29.2 µM | TGI (SF-539 CNS): 79.1 µM | GI50 (UACC-62 melanoma): > 100 µM | TGI (UACC-62 melanoma): > 100 µM | GI50 (COLO 205 colon): > 100 µM | TGI (COLO 205 colon): > 100 µM | GI50 (MOLT-4 leukemia): 10.3 µM | TGI (MOLT-4 leukemia): > 100 µM | GI50 (SF-295 CNS): > 100 µM | TGI (SF-295 CNS): > 100 µM | GI50 (A549 NSCLC): > 100 µM | TGI (A549 NSCLC): > 100 µM | GI50 (HS 578T breast): > 100 µM | TGI (HS 578T breast): > 100 µM | GI50 (EKVX NSCLC): > 100 µM | TGI (EKVX NSCLC): > 100 µM | GI50 (DU-145 prostate): > 100 µM | TGI (DU-145 prostate): > 100 µM | GI50 (HOP-62 NSCLC): > 100 µM | TGI (HOP-62 NSCLC): > 100 µM | GI50 (U251 CNS): > 100 µM | TGI (U251 CNS): > 100 µM | GI50 (RPMI-8226 leukemia): 32.6 µM | TGI (RPMI-8226 leukemia): > 100 µM
